# Measurements from patent US10220008B2, “Treatment and prevention of stroke and other neurological disorders” (STC.UNM, priority 2013, dated 2019).
# Entries after “also recorded” stand apart in the source; their conditions may differ. Structures can show the parent of a compound that is named as a salt.
# Columns and labels:
# primary cortical neurons [1] = test: Secondary screening: TUNEL apoptosis assay after 2 hours OGD, compounds given at or after reoxygenation; format: cell-based, Spraque-Dawley rat; conditions: for dose providing maximum neuroprotection against OGD-induced apoptosis (optimal dose): at reoxygenation after 2 hours OGD; for neuroprotection when administered after reoxygenation onset (time course): optimal dose given 0, 15, 30, 60 minutes after reoxygenation onset after 2 hours OGD
# Procedure: Cortical neurons were obtained from Spraque-Dawley rat embryos at day 18 of gestation. Cortices were triturated and pre-plated 4 times for 30 minutes in 150 mm vacuum-plasma treated dishes (BD). During these pre-plating steps, primarily non-neuronal cells adhere to the dish, thereby enriching the neuronal population. Enriched neurons were plated in Neurobasal medium containing 2% fetal bovine serum (FBS), 25 μM Glutamax, and penicillin-streptomycin (Gibco) in poly-D-lysine-coated white clear-bottomed 96-well plates or 24-well plates (Becton-Dickinson) at a density of 50×10^3/cm^2. Twenty-four hours later (1 day in vitro, 1 DIV), 50% of the medium was replaced with Neurobasal medium, 2% B27 (Gibco), and 4 μM cytosine arabinoside (AraC) (2 μM AraC final). At 5 DIV, 50% of the medium was replaced with Neurobasal, 2% B27. At 7 DIV, cortical cultures were 98% neurons as assessed by microtubule-associated protein 2 (MAP2) antibody labeling and flow cytometry analysis (data not shown). In vitro experiments were performed in quadruplicate and results are shown as means with standard deviation.
# Neuroprotection by candidate compounds was assayed by measurement of apoptosis using terminal deoxynucleotidyl transferase dUTP nick end labeling (TUNEL) reagents as described previously.^6 At 7 DIV, primary neurons grown on poly-D-lysine-coated 22 mm-diameter cover slips in 24-well plates underwent 2 hours of OGD and were treated with a range of doses of each compound at reoxygenation. Compounds providing greater than 2-fold protection over vehicle were then administered at the optimal dose after OGD at intervals of 0, 15, 30, and 60 minutes post-reoxygenation.
# [2] = tested on: spontaneously hypertensive rats (SHR); test: Middle cerebral artery occlusion (MCAO) model of transient focal ischemia; format: in vivo, rat
# Text: All animal procedures were approved by the University of New Mexico Institutional Animal Care and Use Committee and were in compliance with federal guidelines. Male spontaneously hypertensive rats (SHR) weighing 290-300 g were obtained from Charles River Laboratories. Animals were anesthetized with 2% isoflurane inhalant during all surgical procedures. The right common carotid artery (CCA) was ligated approximately 6 mm caudal to the bifurcation of the external and internal carotid arteries. With a vascular clamp in place on the CCA immediately caudal to the bifurcation, an incision was made in the CCA 5 mm caudal to the clamp and a nylon suture (Doccol Corporation) 30 mm in length with a 2-3 mm silicone coated tip (0.39 mm diameter) was advanced into the CCA lumen and secured in place with 2 4-0 silk sutures spaced 3 mm apart and tied loosely around the CCA caudal to the clamp. The clamp was removed and the suture advanced into the internal carotid artery until resistance was felt. In this position, the filament occludes the MCA origin and MCA territory becomes ischemic. The suture was secured with the 2 silk sutures around the CCA. […] Edema-corrected infarct volume was calculated by subtracting the area of non-infarcted tissue in the ipsilateral hemisphere from the total volume of the contralateral hemisphere. Infarct volume was quantified using Image J software.
# primary cortical neurons [3] = test: High-throughput oxygen-glucose deprivation (OGD) screen of the Prestwick Chemical Library, CytotoxGlo dead/live cell protease ratio; format: cell-based, Spraque-Dawley rat; conditions: pretreatment, 10 μM, pure cortical neurons
# Procedure: The Prestwick Chemical Library (Prestwick Chemical) was screened for neuroprotection in OGD by pre-treating 7 DIV cortical neurons in 96-well dishes with 10 μM compounds for 30 minutes. All liquid handling was automated and performed by a Beckman Coulter Biomek NX multichannel pipettor. The pretreatment medium was transferred to a clean plate for storage and was kept at 37° C. in a 5% CO2 environment during the OGD exposure. After pretreatment, cells were washed 3 times with deoxygenated glucose-free Hank's buffered saline solution (HBSS), pH 7.4, to remove glucose and oxygen and were covered with 100 μl HBSS. HBSS was deoxygenated in a gas washing bottle with 60 liters of 95% nitrogen, 5% CO2 per 250 ml HBSS. HBSS was maintained at 37° C. during deoxygenation in a water bath. Compounds were added to wells and plates were sealed with sealing tape and placed in a 37° C. incubator for 2 hours (OGD). After 2 hours, HBSS was removed and pretreatment medium was returned to the wells. After 24 hours, neuronal death was quantified using CytotoxGlo reagents (Promega) and a Victor^3 V luminometer (Perkin Elmer) according to the manufacturer's instructions. Eight wells per dish were used as DMSO-treated vehicle-only controls. […]
SMILES,dose providing maximum neuroprotection against OGD-induced apoptosis (optimal dose) (primary cortical neurons [1]; 0.01 to 100 nM tested),neuroprotection when administered after reoxygenation onset (time course) (primary cortical neurons [1]),neuroprotection in the high-throughput screen (in words) (primary cortical neurons [3]),further results
"C[C@H](COc1ccccc1)N[C@H](C)[C@H](O)c1ccc(O)cc1 (racemic) [Isoxsuprine hydrochloride, 4-{1-hydroxy-2-[(1-methyl-2-phenoxyethyl)amino]propyl}phenol]",1 nM,no loss of efficacy; also recorded: no decrease in neuroprotection; also recorded: no loss of neuroprotection,–,"total edema-corrected infarct volume ([2]; 1 mg/kg IV at onset of reperfusion after 90-minute MCAO, 24 hours reperfusion, vehicle 279±25, n=7): 137±18 mm^3; reduction of infarct volume versus vehicle ([2]; single dose 1 mg/kg IV at reperfusion): reduced infarct volume by half"
NC(=O)OCC(O)COc1ccc(Cl)cc1 (centres unmarked) [Chlorphenesin carbamate],–,no decrease in neuroprotection; also recorded: no loss of neuroprotection,–,dose providing maximum neuroprotection against OGD-induced apoptosis (optimal dose) (primary cortical neurons [1]; 100 to 300 μM tested): 200000 nM
CCNCC(O)c1cccc(O)c1 (centres unmarked) [Etilefrine hydrochloride],1 nM,–,–,"neuroprotection when administered after reoxygenation onset (time course) (primary cortical neurons [1]; listed as etilifrine, hydrochloride): significantly decreased; also recorded: significant decrease in neuroprotection"
CN1CCN2c3ccccc3Cc3ccccc3C2C1 (centres unmarked) [Mianserine hydrochloride],–,–,highly protective,neuroprotection in the secondary screen (in words) (primary cortical neurons [1]; given at reoxygenation): ineffective
CC(C)(C)NCC(O)c1cc(Cl)c(N)c(Cl)c1 (centres unmarked) [clenbuterol],–,–,not identified as a neuroprotective compound,–
